Legend:
[1] = tested on: cholesterol absorption (serum 3H-cholesterol); assay: In Vivo Assay of Hypolipidemic Agents using the Rat Cholesterol Absorption Model; design: species or system Sprague-Dawley rats; conditions: peroral; for inhibition in vivo at 1 mg/kg: po, serum 3H-cholesterol 3 h after cholesterol dose, vs vehicle control
In short: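 Female Sprague-Dawley rats (150–250 g, 4–6 per group) were fasted overnight and dosed orally with compound in olive oil or vehicle. Thirty minutes later they received 3–5 μCi 3H-cholesterol orally in olive oil, and serum radioactivity was measured at 3 h. % inhibition = 100×(1−Ctest/Cctrl) at a fixed dose; ED50 is the dose giving half-maximal effect.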

| melting point [°C] | Compound | % inhibition at 10 mg/kg ([1]; 10 mg/kg (footnote 1), serum 3H-cholesterol vs vehicle control) | % inhibition at 3 mg/kg ([1]; 3 mg/kg (footnote 2), serum 3H-cholesterol vs vehicle control) | inhibition in vivo at 1 mg/kg [1] [%] |
| --- | --- | --- | --- | --- |
| 110 | O=C1[C@H](CC[C@H](O)c2ccc(F)cc2)[C@@H](c2ccc(-c3ccc(O)cc3)cc2)N1c1ccc(F)cc1 [Example 2, (3R,4S)-1-(4-fluorophenyl)-3-[(3S)-3-(4-fluorophenyl)-3-hydroxypropyl]-4-(4′-hydroxybiphenyl-4-yl)azetidin-2-one] | 54^1% | – | – |
| 104 | CS(=O)(=O)c1cccc(-c2ccc([C@@H]3[C@@H](CC[C@H](O)c4ccc(F)cc4)C(=O)N3c3ccc(F)cc3)cc2)c1 [Example 10, (3R,4S)-1-(4-fluorophenyl)-3-[(3S)-3-(4-fluorophenyl)-3-hydroxypropyl]-4-[3′-(methylsulfonyl)biphenyl-4-yl]azetidin-2-one] | – | 54^2% | – |
| 101 | O=C1[C@H](CC[C@H](O)c2ccc(F)cc2)[C@@H](c2ccc(-c3ccccc3O)cc2)N1c1ccc(F)cc1 [Example 7, (3R,4S)-1-(4-fluorophenyl)-3-[(3S)-3-(4-fluorophenyl)-3-hydroxypropyl]-4-(2′-hydroxybiphenyl-4-yl)azetidin-2-one] | – | – | 30 |
| 103 | COc1cc(-c2ccc([C@@H]3[C@@H](CC[C@H](O)c4ccc(F)cc4)C(=O)N3c3ccc(F)cc3)cc2)cc(OC)c1OC [Example 9, (3R,4S)-1-(4-fluorophenyl)-3-[(3S)-3-(4-fluorophenyl)-3-hydroxypropyl]-4-(3′,4′,5′-trimethoxybiphenyl-4-yl)azetidin-2-one] | – | – | 40 |
| 107 | O=C1[C@H](CC[C@H](O)c2ccc(F)cc2)[C@@H](c2ccc(-c3cccc(O)c3)cc2)N1c1ccc(F)cc1 [Example 4, (3R,4S)-1-(4-Fluorophenyl)-3-[(3S)-3-(4-fluorophenyl)-3-hydroxypropyl]-4-(3′-hydroxybiphenyl-4-yl)azetidin-2-one] | – | – | 72 |

— patent US7320972B2, “4-Biarylyl-1-phenylazetidin-2-ones” (Microbia, Inc., priority 2003, dated 2008)
